In patent publication US9802895B2, “Indole and benzimidazolecarboxamides as insecticides and acaricides” (BAYER CROPSCIENCE AKTIENGESELLSCHAFT, priority 2014, dated 2017):

How the values were obtained:
[1] = system: engorged adult female cattle ticks (Boophilus microplus); experiment: Boophilus microplus injection test (BOOPMI inj); assay type: in vivo; details: assessed after 7 days
Procedure: Boophilus microplus Injection Test (BOOPMI inj) Solvent: dimethyl sulphoxide To produce a suitable active compound formulation, 10 mg of active compound are mixed with 0.5 ml of solvent and the concentrate is diluted with solvent to the desired concentration. 1 μl of the active compound solution is injected into the abdomen of 5 engorged adult female cattle ticks (Boophilus microplus). The animals are transferred into dishes and kept in a climate-controlled room. The efficacy is assessed after 7 days by laying of fertile eggs. Eggs which are not visibly fertile are stored in a climate-controlled cabinet until the larvae hatch after about 42 days. An efficacy of 100% means that none of the ticks has laid any fertile eggs; 0% means that all the eggs are fertile.

[2] = system: adult cat fleas (Ctenocephalides felis); experiment: Ctenocephalides felis oral test (CTECFE); assay type: in vivo; details: 100 ppm, oral in cattle blood, after 2 days
Procedure: Ctenocephalides felis-Oral Test ([…]) Solvent: dimethyl sulphoxide To produce a suitable active compound formulation, 10 mg of active compound are mixed with 0.5 ml of dimethyl sulphoxide. Dilution with citrated cattle blood gives the desired concentration. About 20 unfed adult cat fleas (Ctenocephalides felis) are placed into a chamber which is closed at the top and bottom with gauze. A metal cylinder whose bottom end is closed with parafilm is placed onto the chamber. The cylinder contains the blood/active compound preparation, which can be imbibed by the fleas through the parafilm membrane. After 2 days, the kill in % is determined 100% means that all of the fleas have been killed; 0% means that none of the fleas have been killed.

[3] = system: caterpillars of the armyworm (Spodoptera frugiperda); experiment: Spodoptera frugiperda spray test (SPODFR); assay type: in vivo; details: for efficacy: 100 g/ha, spray, after 7 days
Procedure: Spodoptera frugiperda—Spray Test (SPODFR) Solvent: 78.0 parts by weight of acetone • • 1.5 parts by weight of dimethylformamide Emulsifier: alkylaryl polyglycol ether To produce a suitable active compound formulation, 1 part by weight of active compound is dissolved using the specified parts by weight of solvent and made up with water containing an emulsifier concentration of 1000 ppm until the desired concentration is attained. To produce further test concentrations, the preparation is diluted with emulsifier-containing water. Leaf discs of maize (Zea mays) are sprayed with an active compound formulation of the desired concentration and, after drying, populated with caterpillars of the armyworm (Spodoptera frugiperda). After 7 days, the efficacy in % is determined 100% means that all the caterpillars have been killed; 0% means that no caterpillars have been killed. Spodoptera frugiperda—Spray Test (SPODFR) Solvent: 78.0 parts by weight of acetone • • 1.5 parts by weight of dimethylformamide Emulsifier: alkylaryl polyglycol ether To produce a suitable active compound formulation, 1 part by weight of active compound is dissolved using the specified parts by weight of solvent and made up with water containing an emulsifier concentration of 1000 ppm until the desired concentration is attained. To produce further test concentrations, the preparation is diluted with emulsifier-containing water. Leaf discs of maize (Zea mays) are sprayed with an active compound formulation of the desired concentration and, after drying, populated with caterpillars of the armyworm (Spodoptera frugiperda). After the desired period of time, the efficacy in % is determined. 100% means that all the caterpillars have been killed; 0% means that no caterpillars have been killed.

[4] = system: L1 larvae of the Australian sheep blowfly (Lucilia cuprina); experiment: Lucilia cuprina test (LUCICU); assay type: in vivo; details: 100 ppm, after 2 days
Procedure: Lucilia cuprina Test (LUCICU) Solvent: dimethyl sulphoxide To produce a suitable active compound formulation, 10 mg of active compound are mixed with 0.5 ml of dimethyl sulphoxide, and the concentrate is diluted with water to the desired concentration. About 20 L1 larvae of the Australian sheep blowfly (Lucilia cuprina) are transferred into a test vessel containing minced horsemeat and the active compound preparation of the desired concentration. After 2 days, the kill in % is determined 100% means that all the larvae have been killed; 0% means that none of the larvae have been killed.

[5] = system: adult houseflies (Musca domestica); experiment: Musca domestica test (MUSCDO); assay type: in vivo; details: 100 ppm, after 2 days
Procedure: Musca domestica Test (MUSCDO) Solvent: dimethyl sulphoxide To produce a suitable active compound formulation, 10 mg of active compound are mixed with 0.5 ml of dimethyl sulphoxide, and the concentrate is diluted with water to the desired concentration. Vessels containing a sponge treated with sugar solution and the active compound preparation of the desired concentration are populated with 10 adult houseflies (Musca domestica). After 2 days, the kill in % is determined. 100% means that all of the flies have been killed; 0% means that none of the flies have been killed.

[6] = system: greenhouse red spider mite (Tetranychus urticae); experiment: Tetranychus urticae spray test, OP-resistant (TETRUR); assay type: in vivo; details: 100 g/ha, spray, after 6 days
Procedure: Tetranychus urticae—Spray Test, OP-Resistant (TETRUR)
(§1) Solvent: 78.0 parts by weight of acetone • • 1.5 parts by weight of dimethylformamide
(§2) Emulsifier: alkylaryl polyglycol ether
(§3) To produce a suitable active compound formulation, 1 part by weight of active compound is dissolved using the specified parts by weight of solvent and made up with water containing an emulsifier concentration of 1000 ppm until the desired concentration is attained. To produce further test concentrations, the preparation is diluted with emulsifier-containing water.
Discs of bean leaves (Phaseolus vulgaris) infested by all stages of the greenhouse red spider mite (Tetranychus urticae) are sprayed with an active compound formulation of the desired concentration.
After 6 days, the efficacy in % is determined 100% means that all the spider mites have been killed; 0% means that none of the spider mites have been killed.
Tetranychus urticae—Spray Test; OP-Resistant (TETRUR)
After the desired period of time, the efficacy in % is determined 100% means that all the spider mites have been killed; 0% means that none of the spider mites have been killed.

[7] = log P by HPLC (EEC directive 79/831 Annex V.A8); assay type: physicochemical; details: 43° C., acidic range pH 2.7; for log P: HPLC, reversed-phase column (C18)
Procedure: a) The determination of the M^+ by LC-MS in the acidic range is effected at pH 2.7, acetonitrile (contains 0.1% formic acid) and water as eluents; linear gradient from 10% acetonitrile to 95% acetonitrile, instrument: Agilent 1100 LC system, Agilent MSD system, HTS PAL. The log P values reported in the tables and Preparation Examples above were determined in accordance with EEC directive 79/831 Annex V.A8 by HPLC (High Performance Liquid Chromatography) using a reversed-phase column (C18). Temperature 43° C. The calibration is effected with unbranched alkan-2-ones (having 3 to 16 carbon atoms), for which the logP values are known.

[8] = system: larvae of the mustard beetle (Phaedon cochleariae); experiment: Phaedon cochleariae spray test (PHAECO); assay type: in vivo; details: after 7 days
Procedure: Phaedon cochleariae—Spray Test (PHAECO)
as §1, §2, §3
After 7 days, the efficacy in % is determined. 100% means that all the beetle larvae have been killed; 0% means that no beetle larvae have been killed.

SMILES	efficacy (laying of fertile eggs) [1] [%]	efficacy (kill in %) [2] [%]	efficacy [3] [%]	efficacy (kill in %) [4] [%]	efficacy (kill in %) [5] [%]	efficacy [6] [%]	log P [7]	efficacy ([8]; 100 g/ha) [%]	% efficacy ([3]; SPODFR, 0.8 g/ha, 7 dat) [%]	% efficacy ([3]; SPODFR, 4 g/ha, 7 dat) [%]	% efficacy (mortality) at a single application rate at 0.8 g/ha ([3]; Spodoptera frugiperda, 168 h, SPODFR, 0.8 g/ha, 7 dat) [%]	% efficacy (mortality) at a single application rate at 4 g/ha ([3]; Spodoptera frugiperda, 168 h, SPODFR, 4 g/ha, 7 dat) [%]	chromatographic logP ([7]; reversed-phase C18 HPLC column, pH 2.7, HPLC)	efficacy ([8]; 20 g/ha) [%]
CCn1c(C(=O)NC(c2cc(Cl)c(F)c(Cl)c2F)C(F)(F)F)cc2cc(C(=O)NC3(C(N)=S)CC3)c(Cl)cc21 (single isomer, unassigned) [I-17]	100	100	100	90	80	100	4.27;	100	–	–	–	–	–	–
CCn1c(C(=O)NC(c2cc(Cl)c(F)c(Cl)c2F)C(F)(F)F)cc2cc(C(=O)NC3(C(N)=S)CC3)c(Cl)cc21 (single isomer, unassigned) [I-18]	100	100	100	100	100	100	4.27;	100	100	100	–	–	–	–
CCn1c(C(=O)NC(c2cc(Cl)c(F)c(Cl)c2F)C(F)(F)F)cc2cc(C(=O)NC3(C(N)=S)CC3)c(Cl)cc21 (stereo not drawn) [I-01, N5-(1-Carbamothioylcyclopropyl)-6-chloro-N2-[1-(3,5-dichloro-2,4-difluorophenyl)-2,2,2-trifluoroethyl]-1-ethylindole-2,5-dicarboxamide]	100	100	100	100	100	100	–	100	–	–	100	100	4.25	–
CCn1c(C(=O)NC(c2cc(Cl)c(F)c(Cl)c2)C(F)(F)F)cc2cc(C(=O)NC3(C(N)=S)CC3)c(Cl)cc21 (stereo not drawn) [I-02]	100	100	100	100	100	100	4.04	100	100	100	–	–	–	–
CCn1c(C(=O)NC(c2ccc(F)c(Br)c2)C(F)(F)F)cc2cc(C(=O)NC3(C(N)=S)CC3)c(Cl)cc21 (stereo not drawn) [I-06]	–	–	100	–	–	100	3.64	100	100	100	–	–	–	–
Cn1c(C(=O)NC(c2cc(Cl)c(F)c(Cl)c2F)C(F)(F)F)cc2cc(C(=O)NC3(C(N)=S)CC3)c(Cl)cc21 (stereo not drawn) [I-08]	100	100	100	100	–	100	3.94	100	100	100	–	–	–	–
CCn1c(C(=O)NC(c2cccc(Cl)c2F)C(F)(F)F)cc2cc(C(=O)NC3(C(N)=S)CC3)c(Cl)cc21 (stereo not drawn) [I-11]	100	100	100	–	–	100	3.69	100	–	–	–	–	–	–
C#CCn1c(C(=O)NC(c2cc(Cl)c(F)c(Cl)c2F)C(F)(F)F)cc2cc(C(=O)NC3(C(N)=S)CC3)c(Cl)cc21 (stereo not drawn) [I-12]	100	100	100	100	100	–	3.94	100	100	100	–	–	–	–
C#CCn1c(C(=O)NC(c2cc(Cl)c(F)c(Cl)c2)C(F)(F)F)cc2cc(C(=O)NC3(C(N)=S)CC3)c(Cl)cc21 (stereo not drawn) [I-14]	–	–	100	–	–	100	3.81	100	–	–	–	–	–	–
Cn1c(C(=O)NC(c2cc(Cl)c(F)c(Cl)c2)C(F)(F)F)cc2cc(C(=O)NC3(C(N)=S)CC3)c(Cl)cc21 (stereo not drawn) [I-15]	–	–	100	–	–	90	3.76	–	83	100	–	–	–	100
C#CCn1c(C(=O)NC(c2cc(Cl)c(Cl)c(Cl)c2)C(F)(F)F)cc2cc(C(=O)NC3(C(N)=S)CC3)c(Cl)cc21 (stereo not drawn) [I-21]	–	–	100	–	–	100	4.09	100	100	100	–	–	–	–
CCn1c(C(=O)NC(c2cc(F)cc(F)c2)C(F)F)cc2cc(C(=O)NC3(C(N)=S)CC3)c(Cl)cc21 (stereo not drawn) [I-23]	100	100	83	90	–	100	3.07	100	–	–	–	–	–	–
CCn1c(C(=O)NC(c2ccc(Cl)c(Cl)c2)C(F)F)cc2cc(C(=O)NC3(C(N)=S)CC3)c(Cl)cc21 (stereo not drawn) [I-25]	100	100	100	100	–	100	3.54	100	–	–	–	–	–	–
CCn1c(C(=O)NC(c2cc(Cl)c(F)c(Cl)c2F)C(F)F)cc2cc(C(=O)NC3(C(N)=S)CC3)c(Cl)cc21 (stereo not drawn) [I-28]	–	–	100	–	–	100	3.90	100	–	–	–	–	–	–
